Data as given in patent publication US20030041357A1, “Herbicide resistant plants” (priority 1996, published 2003).
“And” between values parts separate entries of the source, which are not always exact repeats. Equal values may be shown once.

Tests used:
wild type tobacco = assay: Kill curve of glyphosate in tissue culture; assay type: in vivo, Nicotiana tabaccum var Samsun; details: 0.005 mM in MS medium, two weeks
From the text: Selection on glyphosate A kill curve is constructed for growth of tobacco in tissue culture on glyphosate containing medium. This is done by inserting a stem segment ˜6 mm long and carrying a leaf node into MS medium containing a range of glyphosate isopropylamine concentrations. Four/five stem segments are used at each concentration.

wild type controls = assay: Growth on herbicide-containing tissue culture medium; assay type: in vivo, Tobacco; details: 0.01 and 0.05 mM glyphosate; 10 and 40 ppm alachlor
Wildtype tobacco = assay: Glyphosate spray test (Table 8 control); assay type: in vivo, Nicotiana tabaccum var Samsun
Experimental: (§1) A kill curve is established for the effect of glyphosate on wild type tobacco. Wild type tobacco growing in tissue culture is sub-cultured by taking stem segments and growing in fresh medium to generate 20 new plants. These are grown in tissue culture for one month before transfer to 3 inch pots in John Innes No 3 compost. They are initially covered in fleece to protect them. After uncovering they are allowed to acclimatise for four days before being sprayed. After spraying watering is only into the saucers i.e. no water is allowed to touch the leaves for five days. Scoring was done 8 days and 28 days after treatment.
(§2) Following construction of the glyphosate kill curve, a number of pDV1, 2 and 3 lines are spray tested with appropriate rates of glyphosate.

DV6/HPPD tobacco = assay: Herbicide trial of DV6/HPPD cross (Example 10); assay type: in vivo; details: 800 g/ha on seedlings surviving 300 g/ha ZA1296
[1] = test system: tobacco from cross DV3 #43B x ET4-208; assay: Glyphosate spray of DV3 #43B x ET4-208 seedlings; assay type: in vivo; details: 500 and 800 g/ha on seedlings tolerant to bleaching herbicides; scored 14 and 28 DAT
[2] = test system: pDV6 plants expressing both glyphosate resistance genes and GST; assay: Pre-em/post-em herbicide treatment of DV6 plants (Table 1); parameters: species or system Tobacco; details: in vivo
[3] = test system: primary transformants from pDV6-Bin; assay: Growth on herbicide-containing tissue culture medium; assay type: in vivo, Tobacco; details: a number of transgenics; 0.01 and 0.05 mM glyphosate; 10 and 40 ppm alachlor
[4] = test system: pDV3 primary transformants (GOX/EPSPS tobacco); assay: Glyphosate spray test of pDV3 lines; assay type: in vivo, Nicotiana tabaccum var Samsun; parameters: scale not given here
Experimental: as §1, §2

Wild type plants = assay: Pre-em/post-em herbicide treatment (Table 1); assay type: in vivo, Tobacco; details: post-em 800 g/ha
[5] = test system: tobacco plants transformed with the Pseudomonas 4-HPPD gene; assay: Explant bleaching test on MS agar, 4-HPPD transformants (Example 1); assay type: in vivo, Nicotiana tabacum var Samsun; details: subset of ZA1296 resistant plants
[6] = test system: plants transformed with the Synechocystis sp. PCC6803 4-HPPD gene; assay: Explant bleaching test on MS agar, 4-HPPD transformants (Example 2); assay type: in vivo, Potato and tomato; details: subset of ZA1296 resistant plants
[7] = no pre-em, third line (plant not given)

## CC(C)N.O=C(O)CNCP(=O)(O)O [Glyphosate isopropylamine]
Wild type tobacco
  Growth of explant: No growth in any organ

## O=C(O)CNCP(=O)(O)O [Glyphosate, glyphosate]
Wild type controls
  growth on tissue culture medium: fail to
Wildtype tobacco; 12.33 g/ha
  dose/response to glyphosate spray (damage): 2
Wildtype tobacco; 37 g/ha
  dose/response to glyphosate spray (damage): 3
Wildtype tobacco; 100 g/ha
  dose/response to glyphosate spray (damage): 20
Wildtype tobacco; 300 g/ha
  dose/response to glyphosate spray (damage): 80
Wildtype tobacco; 1000 g/ha
  dose/response to glyphosate spray (damage): 93
DV6/HPPD tobacco
  tolerance to spray: demonstrate tolerance
[1]
  resistance to post-emergence spray: resistant
[2]
  replicate score for damage, replicate a: 75 and 100
  replicate score for damage, replicate b: 0
  replicate score for damage, replicate c: 0
  replicate score for damage, replicate d: 0 and 95
[3]
  growth on tissue culture medium: grow successfully
[4]; pDV3 #11, 100 g/ha
  dose/response to glyphosate spray (damage): 0
[4]; pDV3 #11, 300 g/ha
  dose/response to glyphosate spray (damage): 0
[4]; pDV3 #11, 1000 g/ha
  dose/response to glyphosate spray (damage): 25
[4]; pDV3 #11, 3000 g/ha
  dose/response to glyphosate spray (damage): 70
[4]; pDV3 #11, 9000 g/ha
  dose/response to glyphosate spray (damage): 80
[4]; pDV3 #14, 100 g/ha
  dose/response to glyphosate spray (damage): 7
[4]; pDV3 #14, 300 g/ha
  dose/response to glyphosate spray (damage): 22
[4]; pDV3 #14, 1000 g/ha
  dose/response to glyphosate spray (damage): 13
[4]; pDV3 #14, 3000 g/ha
  dose/response to glyphosate spray (damage): 33
[4]; pDV3 #14, 9000 g/ha
  dose/response to glyphosate spray (damage): 76
[4]; pDV3 #19, 100 g/ha
  dose/response to glyphosate spray (damage): 0
[4]; pDV3 #19, 300 g/ha
  dose/response to glyphosate spray (damage): 0
[4]; pDV3 #19, 1000 g/ha
  dose/response to glyphosate spray (damage): 0
[4]; pDV3 #19, 3000 g/ha
  dose/response to glyphosate spray (damage): 35
[4]; pDV3 #19, 9000 g/ha
  dose/response to glyphosate spray (damage): 80
[4]; pDV3 #21, 100 g/ha
  dose/response to glyphosate spray (damage): 0
[4]; pDV3 #21, 300 g/ha
  dose/response to glyphosate spray (damage): 5
[4]; pDV3 #21, 1000 g/ha
  dose/response to glyphosate spray (damage): 0
[4]; pDV3 #21, 3000 g/ha
  dose/response to glyphosate spray (damage): 24
[4]; pDV3 #21, 9000 g/ha
  dose/response to glyphosate spray (damage): 78
[4]; pDV3 #31, 100 g/ha
  dose/response to glyphosate spray (damage): 12
[4]; pDV3 #31, 300 g/ha
  dose/response to glyphosate spray (damage): 0
[4]; pDV3 #31, 1000 g/ha
  dose/response to glyphosate spray (damage): 4
[4]; pDV3 #31, 3000 g/ha
  dose/response to glyphosate spray (damage): 26
[4]; pDV3 #31, 9000 g/ha
  dose/response to glyphosate spray (damage): 78
[4]; pDV3 #34, 100 g/ha
  dose/response to glyphosate spray (damage): 0
[4]; pDV3 #34, 300 g/ha
  dose/response to glyphosate spray (damage): 0
[4]; pDV3 #34, 1000 g/ha
  dose/response to glyphosate spray (damage): 6
[4]; pDV3 #34, 3000 g/ha
  dose/response to glyphosate spray (damage): 30
[4]; pDV3 #34, 9000 g/ha
  dose/response to glyphosate spray (damage): 63
[4]; pDV3 #36, 100 g/ha
  dose/response to glyphosate spray (damage): 0
[4]; pDV3 #36, 300 g/ha
  dose/response to glyphosate spray (damage): 0
[4]; pDV3 #36, 1000 g/ha
  dose/response to glyphosate spray (damage): 0
[4]; pDV3 #36, 3000 g/ha
  dose/response to glyphosate spray (damage): 0
[4]; pDV3 #36, 9000 g/ha
  dose/response to glyphosate spray (damage): 0
[4]; pDV3 #37, 100 g/ha
  dose/response to glyphosate spray (damage): 0
[4]; pDV3 #37, 300 g/ha
  dose/response to glyphosate spray (damage): 0
[4]; pDV3 #37, 1000 g/ha
  dose/response to glyphosate spray (damage): 9
[4]; pDV3 #37, 3000 g/ha
  dose/response to glyphosate spray (damage): 24
[4]; pDV3 #37, 9000 g/ha
  dose/response to glyphosate spray (damage): 72
[4]; pDV3 #43, 100 g/ha
  dose/response to glyphosate spray (damage): 0
[4]; pDV3 #43, 300 g/ha
  dose/response to glyphosate spray (damage): 0
[4]; pDV3 #43, 1000 g/ha
  dose/response to glyphosate spray (damage): 0
[4]; pDV3 #43, 3000 g/ha
  dose/response to glyphosate spray (damage): 6
[4]; pDV3 #43, 9000 g/ha
  dose/response to glyphosate spray (damage): 73
[4]; pDV3 #44, 100 g/ha
  dose/response to glyphosate spray (damage): 0
[4]; pDV3 #44, 300 g/ha
  dose/response to glyphosate spray (damage): 40
[4]; pDV3 #44, 1000 g/ha
  dose/response to glyphosate spray (damage): 45
[4]; pDV3 #44, 3000 g/ha
  dose/response to glyphosate spray (damage): 78
[4]; pDV3 #44, 9000 g/ha
  dose/response to glyphosate spray (damage): 85
[4]; pDV3 #45, 100 g/ha
  dose/response to glyphosate spray (damage): 0
[4]; pDV3 #45, 300 g/ha
  dose/response to glyphosate spray (damage): 0
[4]; pDV3 #45, 1000 g/ha
  dose/response to glyphosate spray (damage): 3
[4]; pDV3 #45, 3000 g/ha
  dose/response to glyphosate spray (damage): 9
[4]; pDV3 #45, 9000 g/ha
  dose/response to glyphosate spray (damage): 70
[4]; pDV3 #47, 100 g/ha
  dose/response to glyphosate spray (damage): 5
[4]; pDV3 #47, 300 g/ha
  dose/response to glyphosate spray (damage): 0
[4]; pDV3 #47, 1000 g/ha
  dose/response to glyphosate spray (damage): 0
[4]; pDV3 #47, 3000 g/ha
  dose/response to glyphosate spray (damage): 11
[4]; pDV3 #47, 9000 g/ha
  dose/response to glyphosate spray (damage): 72
[4]; pDV3 #60, 100 g/ha
  dose/response to glyphosate spray (damage): 0
[4]; pDV3 #60, 300 g/ha
  dose/response to glyphosate spray (damage): 0
[4]; pDV3 #60, 1000 g/ha
  dose/response to glyphosate spray (damage): 0
[4]; pDV3 #60, 3000 g/ha
  dose/response to glyphosate spray (damage): 19
[4]; pDV3 #60, 9000 g/ha
  dose/response to glyphosate spray (damage): 63
[4]; pDV3 #64, 100 g/ha
  dose/response to glyphosate spray (damage): 0
[4]; pDV3 #64, 300 g/ha
  dose/response to glyphosate spray (damage): 5
[4]; pDV3 #64, 1000 g/ha
  dose/response to glyphosate spray (damage): 0
[4]; pDV3 #64, 3000 g/ha
  dose/response to glyphosate spray (damage): 12
[4]; pDV3 #64, 9000 g/ha
  dose/response to glyphosate spray (damage): 63
Wild type plants; Wild type, no pre-em treatment
  % Phytotoxicity (mean, 21 DAT): 86.25%
Wild type plants; [7]
  replicate score for damage, replicate a: 90
  replicate score for damage, replicate b: 90
  replicate score for damage, replicate c: 90
  replicate score for damage, replicate d: 75

## CS(=O)(=O)c1cc(C(F)(F)F)ccc1C(=O)c1cnoc1C1CC1 [Isoxaflutole, 5-cyclopropyl-4-(2-methylsulphonyl-4-trifluoromethylbenzoyl)isoxazole]
[5]
  resistance of the herbicide resistant transgenic plants: even more resistant
[6]
  resistance of the herbicide resistant transgenic plants: resistant
